# Test results published in US4071627A, “2-Oximino-tetrahydro-1,4-thiazin-5-one compounds and pesticidal carbamate derivatives” (priority 1976, dated 1978).
# How the values were obtained:
# Assay type in all cases: in vivo
# Design in all cases: key: A: excellent control; B: partial control; C: no control
# [1] = system: southern armyworm (Prodenia eridania, (Cram.)); test: Southern Armyworm Leaf Spray Test; conditions: 500 ppm, three days, larvae
# Description: (§1) Suspensions of the test compounds were prepared by dissolving one gram of compound in 50 milliliters of acetone in which had been dissolved 0.1 gram (10 percent of the weight of compound) of an alkylphenoxy polyethoxyethanol surfactant, as an emulsifying or dispersing agent. The resulting solution was mixed into 150 milliliters of water to give roughly 200 milliliters of a suspension containing the compound in finely divided form. The thus-prepared stock suspension contained 0.5 percent by weight of test compound. The test concentrations in parts per million by weight employed in the tests described hereinbelow were obtained by appropriate dilutions of the stock suspension with water. The test procedures were as follows:
# Larvae of the southern armyworm (Prodenia eridania, (Cram.)), reared on Tendergreen bean plants at a temperature of 80°±5° F. and a relative humidity of 50±5 percent, constituted the test insects.
# The test compounds were formulated by diluting the stock suspension with water to give a suspension containing 500 parts of test compound per million parts of final formulation. Potted Tendergreen bean plants of standard height and age were placed on a revolving turntable and sprayed with 100-110 milliliters of test compound formulation by use of a DeVilbiss spray gun set at 10 psig air pressure. This application, which lasted 25 seconds, was sufficient to wet plants to run-off. As a control, 100-110 milliliters of a water-acetone-emulsifier solution containing no test compound were also sprayed on infested plants. When dry, the paired leaves were separated and each one was placed in a 9 centimeter Petri dish lined with moistened filter paper. Five randomly selected larvae were introduced into each dish and the dishes were closed. The closed dishes were labeled and held at 80°-85° F. for three days. Although the larvae cound easily consume the whole leaf within 24 hours, no more food was added. Larvae which were unable to move the length of the body, even upon stimulation by prodding, were considered dead. Percent mortality was […] for various concentration levels.
# (§2) In these tests the pesticidal activity of the compounds against aphid, mite, Southern Armyworm, Mexican Bean Beetle, and house fly was rated as follows: […]
# [2] = system: house flies (Musca domestica, L.); test: Fly Bait Test; conditions: 500 ppm, 24 hours, adults
# Description: as §1
# Four to six day old adult house flies (Musca domestica, L.), reared according to the specifications of the Chemical Specialities Manufacturing Association (Blue Book, McNair-Dorland Co., N.Y. 1954; pages 243-244, 261) under controlled conditions of 80°±5° F. and 50±5 percent relative humidity, were the test insects. The flies were immobilized by anesthetizing with carbon dioxide and 25 immobilized individuals, males and females, were transferred to a cage consisting of a standard food strainer about 5 inches in diameter which was inverted over a wrapping-paper-covered surface. The test compounds were formulated by diluting the stock suspension with a 10 percent (by weight) sugar solution to give a suspension containing 500 parts of test compound per million parts of final formulation, by weight. Ten milliliters of the test formulation were added to a souffle cup containing a 1-inch square of an absorbent cotton pad. This bait cup was introduced and centered on the blotting paper under the food strainer prior to admitting the anesthetized flies. The caged flies were allowed to feed on the bait for 24 hours, at a temperature of 80°±5° F. and the relative humidity of 50±5 percent.
# as §2
# [3] = system: bean aphid (Aphis fabae Scop.); test: Bean Aphid Foliage Spray Test; conditions: 500 ppm, 24 hours, adults and nymphs
# Description: as §1
# Adults and nymphal stages of the bean aphid (Aphis fabae Scop.) reared on potted dwarf nasturtium plants at 65°-70° F. and 50-70 percent relative humidity, constituted the test insects. For testing purposes, the number of aphids per pot was standardized to 100-150 by trimming plants containing excess aphids.
# The test compounds were formulated by diluting the stock suspension with water to give a suspension containing 500 parts of test compound per million parts of final formulation.
# The potted plants (one pot per compound tested) infested with 100-150 aphids, were placed on a revolving turntable and sprayed with 100-110 milliliters of test compound formulated by use of a DeVilbiss spray gun set at 40 psig. air pressure. This application, which lasted 25 seconds, was sufficient to wet the plants to run-off. As a control, 100-110 milliliters of a water-acetone-emulsifier solution containing no test compound were also sprayed on infested plants. After spraying, the pots were placed on their sides on a sheet of white standard mimeograph paper which had been previously ruled to facilitate counting. Temperature and humidity in the test room during the 24 hour holding period were 65°-70° F. and 50-70 percent, respectively. Aphids which fell onto the paper and were unable to remain standing after being uprighted were considered dead. Aphids remaining on the plants were observed closely for movement and those which were unable to move the length of the body upon stimulation by prodding were considered dead. Percent mortality was recorded for various concentration levels.
# as §2
# [4] = system: Mexican bean beetle (Epilachna varivestis, Muls.); test: Mexican Bean Beetle Leaf Spray Test; conditions: 500 ppm, three days, fourth instar larvae
# Description: as §1
# Fourth instar larvae of the Mexican bean beetle (Epilachna varivestis, Muls.), reared on Tendergreen bean plants at a temperature of 80°±5° F. and 50±5 percent relative humidity, were the test insects.
# The test compounds were formulated by diluting the stock suspension with water to give a suspension containing 500 parts of test compound per million parts of final formation. Potted Tendergreen bean plants of standard height and age were placed on a revolving turntable and sprayed with 100-110 milliliters of test compound formulated by use of a DeVilbiss spray gun set at 10 psig air pressure. This application, which lasted 25 seconds, was sufficient to wet plants to run-off. As a control, 100-110 milliliters of a water-acetone-emulsifier solution containing no test compound were also sprayed on infested plants. When dry, the paired leaves were separated and each was placed in a 9 centimeter Petri dish lined with moistened filter paper. Five randomly selected larvae were introduced into each dish, and the dishes were closed. The closed dishes were labeled and held at a temperature of 80°±5° F. for three days. Although the larvae could easily consume the leaf within 24 to 48 hours, no more food was added. Larvae which were unable to move the length of the body, even upon stimulation, were considered dead.
# as §2
# [5] = system: two-spotted mite (Tetranychus urticae Koch); test: Mite Foliage Spray Test; conditions: 500 ppm, six days, adults and nymphs
# Description: as §1
# Adults and nymphal stages of the two-spotted mite (Tetranychus urticae Koch), reared on Tengergreen bean plants at 80±5 percent relative humidity, were the test organisms. Infested leaves from a stock culture were placed on the primary leaves of two bean plants 6 to 8 inches in height, growing in a 21/2 inch clay pot. 150-200 Mites, a sufficient number for testing, transferred from the excised leaves to the fresh plants in a period of 24 hours. Following the 24 hour transfer period, the excised leaves were removed from the infested plants. The test compounds were formulated by diluting the stock suspension with water to give a suspension containing 500 parts of test compound per million parts of final formulation. The potted plants (one pot per compound) were placed on a revolving turntable and sprayed with 100-110 milliliters of test compound formulation by use of a DeVilbiss spray gun set at 40 psig. air pressure. This application, which lasted 25 seconds, was sufficient to wet the plants to run-off. As a control, 100-110 milliliters of a water solution containing acetone and emulsifier in the same concentrations as the test compound formulation, but containing no test compound, were also sprayed on infested plants. The sprayed plants were held at 80±5 percent relative humidity for six days, after which a mortality count of motile forms was made. Microscopic examination for motile forms was made on the leaves of the test plants. Any individual which was capable of locomotion upon prodding was considering living.
# as §2
structure (smiles),measurement,setting,value
"CCN1C(=O)CSC(=NOC(=O)NC)C1C (stereo not shown) [2-[O-(Methylcarbamoyl)oximino]-4-ethyl-3-methyltetrahydro-1,4-thiazin-5-one]","Biological Activity, Southern Armyworm",[1],B
same,"Biological Activity, House Fly",[2],A
same,"Biological Activity, Aphid",[3],B
same,"Biological Activity, Mexican Bean Beetle",[4],B
same,"Biological Activity, Mite",[5],A
"CCCCN1C(=O)CSC(=NO)C1C (stereo not shown) [2-Oximino-4-butyl-3-methyltetrahydro-1,4-thiazin-5-one]","Biological Activity, Southern Armyworm",[1],C
same,"Biological Activity, House Fly",[2],C
same,"Biological Activity, Aphid",[3],C
same,"Biological Activity, Mexican Bean Beetle",[4],C
same,"Biological Activity, Mite",[5],C
"CC(=O)N(C)C(=O)ON=C1SCC(=O)N(C)C1C (stereo not shown) [2-[O-(N-Acetyl-N-methylcarbamoyl)oximino]-3,4-dimethyltetrahydro-1,4-thiazin-5-one]","Biological Activity, Southern Armyworm",[1],A
same,"Biological Activity, House Fly",[2],C
same,"Biological Activity, Aphid",[3],C
same,"Biological Activity, Mexican Bean Beetle",[4],C
same,"Biological Activity, Mite",[5],C
"CNC(=O)ON=C1SCC(=O)NC1(C)C [2-[O-(Methylcarbamoyl)oximino]-3,3-dimethyltetrahydro-1,4-thiazin-5-one]","Biological Activity, Southern Armyworm",[1],A
same,"Biological Activity, House Fly",[2],A
same,"Biological Activity, Aphid",[3],A
same,"Biological Activity, Mexican Bean Beetle",[4],A
same,"Biological Activity, Mite",[5],A
"CNC(=O)ON=C1SCC(=O)N(CC(C)C)C1C (stereo not shown) [2-[O-(Methylcarbamoyl)oximino]-4-isobutyl-3-methyltetrahydro-1,4-thiazin-5-one]","Biological Activity, Southern Armyworm",[1],C
same,"Biological Activity, House Fly",[2],A
same,"Biological Activity, Aphid",[3],C
same,"Biological Activity, Mexican Bean Beetle",[4],C
same,"Biological Activity, Mite",[5],C
"CN1C(=O)CSC(=NO)C1(C)C [2-Oximino-3,3,4-trimethyltetrahydro-1,4-thiazin-5-one]","Biological Activity, Southern Armyworm",[1],C
same,"Biological Activity, House Fly",[2],C
same,"Biological Activity, Aphid",[3],C
same,"Biological Activity, Mexican Bean Beetle",[4],C
same,"Biological Activity, Mite",[5],C
"CC(C)CN1C(=O)CSC(=NO)C1C (stereo not shown) [2-Oximino-4-isobutyl-3-methyltetrahydro-1,4-thiazin-5-one]","Biological Activity, Southern Armyworm",[1],C
same,"Biological Activity, House Fly",[2],C
same,"Biological Activity, Aphid",[3],C
same,"Biological Activity, Mexican Bean Beetle",[4],C
same,"Biological Activity, Mite",[5],C
"CCN1C(=O)CSC(=NO)C1C (stereo not shown) [2-Oximino-4-ethyl-3-methyltetrahydro-1,4-thiazin-5-one]","Biological Activity, Southern Armyworm",[1],C
same,"Biological Activity, House Fly",[2],C
same,"Biological Activity, Aphid",[3],C
same,"Biological Activity, Mexican Bean Beetle",[4],C
same,"Biological Activity, Mite",[5],C
"CNC(=O)ON=C1SCC(=O)N(C)C1C (stereo not shown) [2-[O-(methylcarbamoyl)oximino]-3,4-dimethyltetrahydro-1,4-thiazin-5-one]","Biological Activity, Southern Armyworm",[1],C
same,"Biological Activity, House Fly",[2],A
same,"Biological Activity, Aphid",[3],A
same,"Biological Activity, Mexican Bean Beetle",[4],A
same,"Biological Activity, Mite",[5],A
"CN(C)SN(C)C(=O)ON=C1SCC(=O)NC1(C)C [2-[O-(N-Dimethylaminosulfenyl-N-methylcarbamoyl)oximino]-3,3-dimethyltetrahydro-1,4-thiazin-5-one]","Biological Activity, Southern Armyworm",[1],A
same,"Biological Activity, House Fly",[2],A
same,"Biological Activity, Aphid",[3],A
same,"Biological Activity, Mexican Bean Beetle",[4],A
same,"Biological Activity, Mite",[5],A
"CNC(=O)ON=C1SCC(=O)N(C(C)C)C1C (stereo not shown) [2-[O-(Methylcarbamoyl)oximino]-4-isopropyl-3-methyltetrahydro-1,4-thiazin-5-one]","Biological Activity, Southern Armyworm",[1],C
same,"Biological Activity, House Fly",[2],A
same,"Biological Activity, Aphid",[3],C
same,"Biological Activity, Mexican Bean Beetle",[4],C
same,"Biological Activity, Mite",[5],B
"CN(SN1CCOCC1)C(=O)ON=C1SCC(=O)NC1(C)C [2-[O-(N-Morpholinosulfenyl-N-methylcarbamoyl)oximino]-3,3-dimethyltetrahydro-1,4-thiazin-5-one]","Biological Activity, Southern Armyworm",[1],A
same,"Biological Activity, House Fly",[2],A
same,"Biological Activity, Aphid",[3],A
same,"Biological Activity, Mexican Bean Beetle",[4],A
"CC1C(=NO)SCC(=O)N1C (stereo not shown) [2-Oximino-3,4-dimethyltetrahydro-1,4-thiazin-5-one]","Biological Activity, Southern Armyworm",[1],C
same,"Biological Activity, House Fly",[2],C
same,"Biological Activity, Mexican Bean Beetle",[4],C
same,"Biological Activity, Mite",[5],C
"CNC(=O)ON=C1SCC(=O)N(C)C1(C)C [2-[O-(Methylcarbamoyl)oximino]-3,3,4-trimethyltetrahydro-1,4-thiazin-5-one]","Biological Activity, Southern Armyworm",[1],B
same,"Biological Activity, House Fly",[2],A
same,"Biological Activity, Aphid",[3],B
same,"Biological Activity, Mexican Bean Beetle",[4],A
same,"Biological Activity, Mite",[5],A
"CCCCN1C(=O)CSC(=NOC(=O)NC)C1C (stereo not shown) [2-[O-(Methylcarbamoyl)oximino]-4-butyl-3-methyltetrahydro-1,4-thiazin-5-one]","Biological Activity, Southern Armyworm",[1],C
same,"Biological Activity, House Fly",[2],B
same,"Biological Activity, Aphid",[3],C
same,"Biological Activity, Mexican Bean Beetle",[4],B
same,"Biological Activity, Mite",[5],C
